From US20110306547A1, “LHRH - ANTAGONISTS IN THE TREATMENT OF FERTILITY DISORDERS” (Zentaris GmbH, priority 1996, published 2011)
Where a SMILES comes first, the peptide text is derived from it. [ ]: non-standard residue; d: D form. dPhe(4-Cl) = N[C@H](Cc1ccc(Cl)cc1)C(=O)O; d2Nal = N[C@H](Cc1ccc2ccccc2c1)C(=O)O; dCit = NC(=O)NCCC[C@@H](N)C(=O)O; d3Pal = N[C@H](Cc1cccnc1)C(=O)O

Test system: patients undergoing COS/ART
Assay: Phase II clinical trial of Cetrorelix in controlled ovarian stimulation / superovulation for assisted reproduction (COS/ART)
Assay type: in vivo, human (patients)
Description: The results of a phase II clinical trial are shown in Table I. A total of […] patients were treated. […] During multiple dosing, the mean days of Cetrorelix application is 6 days. 25 babies were born by the end of May 1996 (7 following multiple doses; 18 following single/dual doses). [table] […] [table] 238 patients were treated with Cetrorelix by subcutaneous injection of Cetrorelix […]-Lyophilisat. 134 patients were treated with multiple doses and 104 patients with single or dual doses. The multiple doses are 0.25 mg/day or higher. The single dose was 3 mg or higher. […] Multiple doses were applied for 3 to a maximum of 10 days dependent on follicular development.

[1] = multiple dose schedule, daily s.c., 3-7/14 days, phase II dose finding
[2] = single dose, posology 1 day, phase II dose finding

Question: Which results are given for CC(=O)N[C@H](Cc1ccc2ccccc2c1)C(=O)N[C@H](Cc1ccc(Cl)cc1)C(=O)N[C@H](Cc1cccnc1)C(=O)N[C@@H](CO)C(=O)N[C@@H](Cc1ccc(O)cc1)C(=O)N[C@H](CCCNC(N)=O)C(=O)N[C@@H](CC(C)C)C(=O)N[C@@H](CCCNC(=N)N)C(=O)N1CCC[C@H]1C(=O)N[C@H](C)C(N)=O [Cetrorelix] (Ac-[d2Nal][dPhe(4-Cl)][d3Pal]SY[dCit]LRP[dA]-NH2)?
Answer: premature LH surge (FIG. 1) (FIG. 1): absolute prevention of any premature LH surge; pregnancies (number) (all phase II patients, both regimens): 71 pregnancies; minimal effective dose (Dose/Day) [1]: 0.25 min. effect. dose mg; no effect dose (Dose/Day) [1]: 0.10 no effect. dose mg; premature LH surge (multiple doses of 0.25 mg/day or higher): No premature LH surge was seen in any patient; premature LH surge (single dose of 3 mg or higher): No premature LH surge was seen in any patient; minimal effective dose [2]: 3 min. effective dose mg; no effect dose [2]: 2 no effect. Dose mg; babies born by the end of May 1996 (total): 25
